Article PMC7037862, “Tricyclic Nucleobase Analogs and Their Ribosides as Substrates and Inhibitors of Purine-Nucleoside Phosphorylases III. Aminopurine Derivatives” (Molecules, 2020)
Like-named read-outs stand apart in the source and are kept apart here.

Experiments:
[1] = Ionization constants (pKa), determined spectrophotometrically; type: physicochemical; details: phosphate and/or acetate buffers
Experimental: Fluorescence spectra were measured on a Varian Eclipse instrument (Varian Corp., Palo Alto, CA, USA), and UV absorption kinetic experiments were performed on a Cary 5000 (Varian Corp., Palo Alto, CA, USA) thermostated spectrophotometer. Fluorescence yields were determined relative to tryptophan (0.15) or 1,N^6-ethenoadenosine in water (0.56, see ref. [2]). Emission spectra were measured in semi-micro cuvettes, pathlength 4 mm, to diminish the inner-filter effect. Typical spectral resolution was 2.5 nm. The ionization constants (pKa values) were determined spectrophotometrically using 20–50 mM phosphate and/or acetate buffers.

[2] = biological target: T1, E. coli PNP-wt (Escherichia coli, UniProt P0ABP8); test: Enzymatic phosphorolysis of ribosides, E. coli PNP wild type; type: biochemical; details: for Vmax (Relative): relative to Vmax of guanosine phosphorolysis (=100)
T1 construct: made in house; host or cells: E. coli
T1 sequence (P0ABP8 2-239 limits assumed): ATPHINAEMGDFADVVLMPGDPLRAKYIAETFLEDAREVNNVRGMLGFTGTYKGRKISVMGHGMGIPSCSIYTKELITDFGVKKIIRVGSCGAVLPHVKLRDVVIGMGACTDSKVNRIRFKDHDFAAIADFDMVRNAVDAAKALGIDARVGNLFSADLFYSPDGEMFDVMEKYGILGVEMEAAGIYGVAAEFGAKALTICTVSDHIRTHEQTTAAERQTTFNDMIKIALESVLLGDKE
Experimental: (§1) Recombinant E. coli PNP, calf spleen PNP, and their mutated forms were expressed in E. coli and purified according to the procedures described earlier. Enzyme concentrations were calculated per monomer.
(§2) Enzymatic ribosylation reactions were carried out in 1 mL cuvettes (pathlength 4 mm) in ~50 mM HEPES buffer, pH 7.3, using 0.5 mM R1P as a ribose source. Reactions were followed fluorimetrically (see Section 2.4). On a larger scale (2–4 mg), the reactions were run in Eppendorf tubes, volume 2–3 mL, using either R1P (3–10 mM) or 7-methylguanosine as ribose sources. Products were purified by semi-preparative HPLC, concentrated and the final solutions kept frozen. Their structure has been confirmed by NMR (see Section 2.4 and Supplementary Materials) and by MS: comp. 3: m/z = 292.10385, comp. 4: m/z = 292.10400, comp. 5: m/z = 292.10398, calculated for C12H13N5O4 + H: 292.10403. Phosphorolysis reactions were run in 40–50 mM phosphate buffer, pH 7.0 or 6.5, and followed spectrally or fluorimetrically. Kinetic parameters were calculated by standard methods.

[3] = biological target: T2, calf PNP-wt (Bos taurus, UniProt P55859); test: Enzymatic phosphorolysis of ribosides, calf PNP wild type; type: biochemical; details: for Km: 40 mM phosphate buffer pH 7; for Vmax (Relative): relative to Vmax of guanosine phosphorolysis (=100)
T2 construct: made in house; host or cells: E. coli
T2 sequence (P55859 1-289): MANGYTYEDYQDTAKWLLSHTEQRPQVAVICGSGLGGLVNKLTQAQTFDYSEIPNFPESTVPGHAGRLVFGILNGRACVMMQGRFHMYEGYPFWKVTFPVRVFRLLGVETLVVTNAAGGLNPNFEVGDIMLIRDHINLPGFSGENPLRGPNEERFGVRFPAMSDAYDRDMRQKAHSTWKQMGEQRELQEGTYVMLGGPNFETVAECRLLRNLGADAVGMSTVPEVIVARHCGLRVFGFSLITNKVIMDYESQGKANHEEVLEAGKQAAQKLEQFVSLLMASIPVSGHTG
Experimental: as §1, §2

[4] = biological target: T3, calf spleen PNP (wt) (Bos taurus, UniProt P55859); test: Enzymatic ribosylation with α-D-ribose-1-phosphate, calf PNP wild type; type: biochemical; details: for Vmax (Relative): ribosylation, relative to guanine ribosylation rate (=100); for ribosylation activity: trimeric calf spleen PNP, wild type
T3 construct: made in house; host or cells: E. coli
T3 sequence (P55859 1-289): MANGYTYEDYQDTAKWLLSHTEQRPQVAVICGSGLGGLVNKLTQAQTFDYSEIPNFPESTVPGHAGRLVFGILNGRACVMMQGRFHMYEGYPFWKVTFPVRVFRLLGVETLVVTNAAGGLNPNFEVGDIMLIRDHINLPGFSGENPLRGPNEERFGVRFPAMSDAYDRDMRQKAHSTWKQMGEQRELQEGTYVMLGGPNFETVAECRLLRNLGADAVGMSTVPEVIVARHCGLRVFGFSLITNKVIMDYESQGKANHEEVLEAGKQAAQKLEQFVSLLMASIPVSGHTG
Experimental: as §1, §2

[5] = biological target: T4, calf PNP N243D (Bos taurus, UniProt P55859, N243D); test: Enzymatic ribosylation with α-D-ribose-1-phosphate, calf PNP N243D mutant; type: biochemical; details: for Vmax (Relative): ribosylation, relative to guanine ribosylation rate (=100)
T4 construct: made in house; host or cells: E. coli
T4 sequence (P55859 1-289 N243D): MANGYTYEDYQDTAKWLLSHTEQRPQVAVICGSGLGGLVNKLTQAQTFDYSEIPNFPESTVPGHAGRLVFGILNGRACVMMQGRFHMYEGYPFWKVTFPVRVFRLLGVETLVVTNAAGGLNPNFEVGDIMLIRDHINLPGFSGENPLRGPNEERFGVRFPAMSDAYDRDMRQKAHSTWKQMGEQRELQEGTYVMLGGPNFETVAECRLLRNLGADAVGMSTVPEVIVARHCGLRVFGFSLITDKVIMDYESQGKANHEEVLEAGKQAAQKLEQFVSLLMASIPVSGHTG
Experimental: as §1, §2

[6] = biological target: T1, E. coli PNP-wt; test: Enzymatic ribosylation with α-D-ribose-1-phosphate, E. coli PNP wild type; type: biochemical; details: for Vmax (Relative): ribosylation, relative to guanine ribosylation rate (=100)
Experimental: as §1, §2

[7] = biological target: T5, E. coli PNP D204N (Escherichia coli, UniProt P0ABP8, D205N); test: Enzymatic ribosylation with α-D-ribose-1-phosphate, E. coli PNP D204N mutant; type: biochemical
T5 construct: made in house; host or cells: E. coli
Experimental: as §1, §2

[8] = biological target: T6, E. coli PNP S90A (Escherichia coli, UniProt P0ABP8, S91A); test: Enzymatic ribosylation with α-D-ribose-1-phosphate, E. coli PNP S90A mutant; type: biochemical
T6 construct: made in house; host or cells: E. coli
Experimental: as §1, §2

[9] = biological target: T7, E. coli PNP (Escherichia coli, UniProt P0ABP8); test: Fluorescence titration of E. coli PNP with ligand (enzyme-ligand complexes); type: binding; details: in the presence of phosphate, 40 mM, pH 7, 20 °C
T7 construct: made in house; host or cells: E. coli
Experimental: Additionally, the fluorescence excitation spectra reveal fluorescence energy transfer (FRET) from the protein to the complexed ligand, since they show marked enhancement in the region 270–280 nm, where the tyrosine residues of the PNP molecule absorb (Figure 10).
Figure 10 Changes in fluorescence excitation (a) and emission spectra (b), observed during the titration of E. coli PNP with N^2,3-etheno-2-aminopurine (2). […] Spectra of the free ligand (3.5 μM) are given for comparison (points). Excitation spectrum of the protein, monitored at 310 nm, is given in black. Conditions: 40 mM phosphate, pH 7, at 20 °C. Concentration of protein was 10.1 μM (per subunit); that of the titrant was 0 to 3.5 μM. Lower panels: Fluorescence difference spectra, calculated from data presented on panels (a) and (b), (c) difference excitation (observed at 380 nm), (d) difference emission spectra, excited at 275 nm. Substrate concentrations are 0.17, 0.69, 1.37, 2.36 and 3.31 μM.
Etheno-tubercidine (6) forms somewhat similar fluorescent complexes with the E. coli PNP. As shown below, FRET from the protein to the ligand is evident in the excitation spectra (Figure 11), and the ligand fluorescence blue shifted from 415 to ca. 390 nm (Figure 11b,c). In this case more than 60% of protein fluorescence is quenched when protein binding sites are saturated (cf. Figure 11). […]

[10] = protonation, read-out: pKa (protonation)
[11] = acidic dissociation, read-out: pKa (acidic dissociation of the imidazole proton)
[12] = ribosylation by R1P, 40 mM HEPES pH 7
[13] = ribosylation, relative to guanine ribosylation rate (=100)

SMILES	pKa [1, 10]	Vmax (Relative) [2]	Km [3]	Vmax (Relative) [3]	pKa [1, 11]	Vmax (Relative) ([4]; calf-wt PNP)	ribosylation activity [4]	Vmax (Relative) ([5]; calf PNP N243D)	Ribosylation Site [6]	Vmax (Relative) [6]	also measured
OC[C@H]1O[C@@H](n2ccn3cc4ncnc-4nc23)[C@H](O)[C@@H]1O [Compound 4, 1,N^2-etheno-2-aminopurine-N^2-β-D-riboside]	~6.3	4	nr	<0.1	–	–	–	–	–	–	–
c1cn2c(n1)ncc1nc[nH]c12 [Compound 2, N^2,3-etheno-2-aminopurine]	5	–	–	–	~9.5	~5	moderate rate	29	predominantly N^2	20	Ribosylation Site ([4]; calf-wt PNP): predominantly N^2; Ribosylation Site ([5]; calf PNP N243D): predominantly N^2; ribosylation activity ([5]; calf PNP mutated in the active site (N243D)): fairly rapidly ribosylated; Ribosylation Site [7]: predominantly N^2; Km [7, 12]: 12 µM; Vmax (Relative) [7, 13]: 30; Ribosylation Site [8]: predominantly N^2; Km [8, 12]: ~20 µM; Vmax (Relative) [8, 13]: 23; quenching of the protein fluorescence at 305 nm [9]: moderate quenching
c1cn2cc3nc[nH]c3nc2n1 [Compound 1, 1,N^2-etheno-2-aminopurine]	5.6	–	–	–	8.2	< 0.1	apparently inactive	traces	mostly N^2	~1	Km ([4]; ribosylation by R1P, calf-wt PNP, 40 mM HEPES pH 7): nr; Km [6, 12]: < 10 µM
OC[C@H]1O[C@@H](n2cnc3cn4ccnc4nc32)[C@H](O)[C@@H]1O [Compound 3, 1,N^2-etheno-2-aminopurine-N^9-β-D-riboside]	–	<1	nr	<0.1	–	–	–	–	–	–	Km ([2]; 40 mM phosphate buffer pH 7): nr
